Here are results for two molecules from publication PMC4306938, “Araguspongine C Induces Autophagic Death in Breast Cancer Cells through Suppression of c-Met and HER2 Receptor Tyrosine Kinase Signaling” (Marine Drugs, 2015).

In assay [1] the target is T1, c-Met (Homo sapiens, UniProt P08581). Kind of assay: cell-free Z-LYTE Tyr6 peptide kinase assay, dose-response. The assay is classed as biochemical.
Assay [2] has as its target T1, c-Met. Kind of assay: cell-free Z-LYTE Tyr6 peptide kinase assay, positive control measured by the authors. Type of assay: biochemical.

T1 sequence (P08581 25-307): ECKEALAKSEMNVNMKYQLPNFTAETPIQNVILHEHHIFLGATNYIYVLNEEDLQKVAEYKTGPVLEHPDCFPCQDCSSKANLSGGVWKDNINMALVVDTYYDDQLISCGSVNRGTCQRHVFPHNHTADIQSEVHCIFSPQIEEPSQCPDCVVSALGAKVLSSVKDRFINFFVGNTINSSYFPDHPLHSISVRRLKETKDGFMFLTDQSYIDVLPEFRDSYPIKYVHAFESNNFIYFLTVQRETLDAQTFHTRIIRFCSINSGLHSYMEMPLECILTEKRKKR
T1 sequence (P08581 308-1390): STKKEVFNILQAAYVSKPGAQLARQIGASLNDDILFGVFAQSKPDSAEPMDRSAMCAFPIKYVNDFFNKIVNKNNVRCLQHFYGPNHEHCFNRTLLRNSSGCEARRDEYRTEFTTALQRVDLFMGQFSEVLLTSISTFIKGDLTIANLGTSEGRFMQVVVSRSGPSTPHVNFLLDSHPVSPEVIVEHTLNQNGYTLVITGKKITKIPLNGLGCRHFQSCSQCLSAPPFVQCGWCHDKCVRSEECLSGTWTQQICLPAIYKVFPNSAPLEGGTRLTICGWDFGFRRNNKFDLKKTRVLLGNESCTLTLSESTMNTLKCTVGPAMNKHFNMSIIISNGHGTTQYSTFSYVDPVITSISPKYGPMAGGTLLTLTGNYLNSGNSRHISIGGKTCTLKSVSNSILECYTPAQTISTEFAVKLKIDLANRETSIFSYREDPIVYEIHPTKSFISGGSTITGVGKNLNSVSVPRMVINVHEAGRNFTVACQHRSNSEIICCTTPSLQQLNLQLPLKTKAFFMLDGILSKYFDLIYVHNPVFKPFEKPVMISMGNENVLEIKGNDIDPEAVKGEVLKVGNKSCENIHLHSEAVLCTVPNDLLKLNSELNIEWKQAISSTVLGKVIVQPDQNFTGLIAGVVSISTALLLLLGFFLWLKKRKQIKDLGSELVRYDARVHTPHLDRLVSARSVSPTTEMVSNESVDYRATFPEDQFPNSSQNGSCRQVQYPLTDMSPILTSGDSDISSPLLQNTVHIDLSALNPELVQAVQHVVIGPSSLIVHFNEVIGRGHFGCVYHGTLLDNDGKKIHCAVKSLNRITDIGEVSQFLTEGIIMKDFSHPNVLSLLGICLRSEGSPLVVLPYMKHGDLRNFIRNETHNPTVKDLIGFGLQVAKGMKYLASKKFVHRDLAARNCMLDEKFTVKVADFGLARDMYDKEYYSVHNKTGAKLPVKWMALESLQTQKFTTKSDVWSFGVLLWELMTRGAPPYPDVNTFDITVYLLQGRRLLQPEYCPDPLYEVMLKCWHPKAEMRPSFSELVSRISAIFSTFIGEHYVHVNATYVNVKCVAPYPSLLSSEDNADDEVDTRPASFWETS

In assay [1], `O[C@]12CCCCCC[C@@H]3CCN4CCC[C@](O)(CCCCCC[C@@H]5CCN(CCC1)[C@H]2O5)[C@@H]4O3` [ARG C, Araguspongine C] gave an IC50 of 19.9 µM.

`C/C=C(/C=O)[C@@H](CC=O)CC(=O)OCCc1ccc(O)cc1` [OC, (−)-Oleocanthal] yielded an IC50 in assay [2] of 5 µM.

What is called IC50 is the concentration at which inhibition is half-maximal. A higher IC50 goes with weaker potency in that assay.
